Data: patent publication USRE48842E1, “Pyrimido-pyrrolo-oxazine-dione compound inhibitors of the cystic fibrosis transmembrane conductance regulator protein and uses therefor” (The Regents of the University of California, priority 2011, dated 2021)

Experiments:
human wildtype CFTR [1] = biological target: T1, human wildtype CFTR (Homo sapiens, UniProt P13569); experiment: Fluorescence plate reader assay of CFTR inhibition (iodide influx); format: cell-based; set-up: expressed in transfected cells; host or cells: Fischer rat thyroid (FRT) cells; details: for IC50 / IC50 (μm)^A: Determined by micro-plate reader assay, FRT cells co-expressing human wild type CFTR and YFP-H148Q
Protocol: Cell Culture and Plate Reader Assay of CFTR Inhibition—Fischer rat thyroid (FRT) cells co-expressing human wild type CFTR and the halide indicator YFP-H148Q were cultured in 96-well black-walled microplates (Corning Costar) at a density of 20,000 cells per well in Coon's modified F12 medium containing 10% fetal bovine serum, 2 mM L-glutamine, 100 U/mL penicillin and 100 μg/mL streptomycin. CFTR chloride conductance was assayed at 48 h after plating on a FluoStar fluorescence plate reader (BMG Lab Technologies) as described (see, e.g., Ma et al., J Clin Invest. 2002, supra). Each well was washed 3 times with PBS, leaving 60 μL PBS. Test compounds were added and incubated with the cells for 45 min. Then, 5 μL of a CFTR-activating cocktail (10 μM forskolin, 100 μM IBMX, 20 μM apigenin in PBS) was added. After 15 min, each well was assayed for iodide influx by recording fluorescence continuously (200 ms per point) for 2 s (baseline) and then for 10 s after rapid addition of 160 μL of isosmolar PBS in which 137 mM chloride was replaced by iodide. The initial rate of iodide influx was computed from fluorescence data by non-linear regression.
Initial testing of the compounds for the capability to inhibit CFTR was performed using a plate-reader assay in which iodide influx was measured in FRT cells co-expressing human wild type CFTR and the iodide-sensing yellow fluorescent protein YFP-H148Q/1152L. […] Table B below provides IC50 values for PPQ and BPO compounds.
The relative IC50 values obtained from the plate reader assay are useful for comparisons. Absolute IC50 values obtained from the plate-reader assay are approximate, generally underestimating compound potency because of assay non-linearities, pH-dependent YFP fluorescence, the use of iodide instead of chloride, and compound dilution at the start of the assay (see, e.g., Galietta et al., Am. J. Physiol. Cell Physiol. 281:C1734-42 (2001)).

human wildtype CFTR [2] = biological target: T1, human wildtype CFTR; experiment: Short-circuit current analysis of CFTR inhibition in CFTR-expressing FRT cells; format: cell-based; set-up: expressed in transfected cells; host or cells: Fischer rat thyroid (FRT) epithelial cells on Snapwell inserts; details: Determined by short-circuit current assay; read-out: IC50 (μM)^B
Protocol: Short-Circuit Current—Snapwell inserts containing CFTR-expressing FRT cells were mounted in an Ussing chamber. The hemichambers contained 5 mL of buffer containing 75 mM NaCl and 75 mM Na gluconate (apical) and 150 mM NaCl (basolateral) (pH 7.3), and the basolateral membrane was permeabilized with 250 μg/mL amphotericin B, as described (see, e.g., Sonawane et al., FASEB J 2006, supra). Short-circuit current was recorded continuously using a DVC-1000 voltage clamp (World Precision Instruments) using Ag/AgCl electrodes and 3 M KCl agar bridges.
Current was measured in CFTR-expressing FRT cells in which the basolateral membrane was permeabilized and in the presence of a transepithelial chloride concentration gradient, so that current is a quantitative linear measure of CFTR function. CFTR was activated by forskolin, followed by serial additions of increasing concentrations of test compounds.
CFTR inhibition potency was measured by short-circuit current analysis in FRT epithelial cells expressing human CFTR in presence of a transepithelial chloride gradient and in which the basolateral membrane was permeabilized with amphotericin B. Under these conditions short-circuit current is proportional to CFTR chloride conductance.

T1 sequence (P13569 whole entry): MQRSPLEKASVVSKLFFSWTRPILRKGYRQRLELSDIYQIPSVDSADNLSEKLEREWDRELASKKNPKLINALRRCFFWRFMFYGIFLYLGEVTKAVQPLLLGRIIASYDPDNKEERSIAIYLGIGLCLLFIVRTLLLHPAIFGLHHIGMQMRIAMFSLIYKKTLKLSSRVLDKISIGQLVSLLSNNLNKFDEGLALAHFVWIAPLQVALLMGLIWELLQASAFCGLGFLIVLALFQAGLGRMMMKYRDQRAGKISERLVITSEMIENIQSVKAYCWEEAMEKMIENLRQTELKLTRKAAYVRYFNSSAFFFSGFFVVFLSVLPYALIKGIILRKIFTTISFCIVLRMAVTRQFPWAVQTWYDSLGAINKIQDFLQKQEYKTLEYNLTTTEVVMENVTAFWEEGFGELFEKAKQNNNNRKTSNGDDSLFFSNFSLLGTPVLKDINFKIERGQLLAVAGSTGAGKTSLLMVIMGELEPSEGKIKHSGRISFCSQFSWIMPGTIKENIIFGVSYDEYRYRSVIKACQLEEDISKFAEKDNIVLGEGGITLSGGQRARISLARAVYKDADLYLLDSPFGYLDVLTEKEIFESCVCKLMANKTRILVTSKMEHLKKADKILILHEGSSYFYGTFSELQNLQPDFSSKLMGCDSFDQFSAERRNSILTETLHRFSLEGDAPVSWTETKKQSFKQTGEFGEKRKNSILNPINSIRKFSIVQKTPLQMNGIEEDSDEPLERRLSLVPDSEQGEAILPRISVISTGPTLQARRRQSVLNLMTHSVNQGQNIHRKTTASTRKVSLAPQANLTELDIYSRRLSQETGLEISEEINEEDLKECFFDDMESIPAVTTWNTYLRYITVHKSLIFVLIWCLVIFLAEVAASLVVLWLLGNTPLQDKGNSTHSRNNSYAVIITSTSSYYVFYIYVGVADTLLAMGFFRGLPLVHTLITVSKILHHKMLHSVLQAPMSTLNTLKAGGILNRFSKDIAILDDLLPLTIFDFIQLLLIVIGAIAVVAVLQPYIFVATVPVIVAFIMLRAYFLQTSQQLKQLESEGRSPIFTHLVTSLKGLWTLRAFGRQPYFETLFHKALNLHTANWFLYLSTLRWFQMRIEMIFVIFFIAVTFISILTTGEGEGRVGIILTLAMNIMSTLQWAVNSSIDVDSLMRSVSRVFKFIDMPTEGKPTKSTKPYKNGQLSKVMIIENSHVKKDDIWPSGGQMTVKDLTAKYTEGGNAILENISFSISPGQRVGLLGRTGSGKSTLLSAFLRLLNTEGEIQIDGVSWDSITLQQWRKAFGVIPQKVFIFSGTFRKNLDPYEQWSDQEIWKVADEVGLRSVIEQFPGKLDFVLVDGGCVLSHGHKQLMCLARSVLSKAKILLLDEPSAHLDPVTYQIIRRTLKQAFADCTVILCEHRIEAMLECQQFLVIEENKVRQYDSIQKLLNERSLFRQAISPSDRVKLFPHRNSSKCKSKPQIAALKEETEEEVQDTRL

SMILES	IC50 (human wildtype CFTR [1]) [µM]	further results
CCOC(=O)c1ccc2c(c1)-n1c(-c3ccccc3)c3c(=O)n(C)c(=O)n(C)c3c1C(c1ccc(Br)o1)O2 (racemic) [BPO-25, Ethyl 6-(5-Bromofuran-2-yl)-7,9-dimethyl-8,10-dioxo-11-phenyl-7,8,9,10-tetrahydro-6H-benzo[b]pyrimido[4′,5′:3,4]pyrrolo[1,2-d][1,4]oxazine-2-carboxylate]	0.05	CFTR inhibition activity (in words) (human wildtype CFTR [1]): excellent CFTR inhibition activity; IC50 (human wildtype CFTR [2]): 0.025 µM
Cn1c(=O)c2c(-c3ccccc3)n3c(c2n(C)c1=O)C(c1ccc(I)o1)Oc1ccccc1-3 (centres unmarked) [BPO-17, 7,9-Dimethyl-6-(5-iodofuran-2-yl)-11-phenyl-6Hbenzo[b]pyrimido[4′,5′-3,4]pyrrolo[1,2-d]oxazine-8,10-(7H,9H)-dione]	0.5	–
Cc1ccc(C2Oc3ccccc3-n3c(-c4ccccc4)c4c(=O)n(C)c(=O)n(C)c4c32)o1 (centres unmarked) [BPO-18, 7,9-Dimethyl-6-(5-methylfuran-2-yl)-11-phenyl-6H-benzo[b]pyrimido[4′,5′-3,4]pyrrolo[1,2-d]oxazine-8,10-(7H,9H)-dione]	0.15	–
Cc1cccc(-c2c3c(=O)n(C)c(=O)n(C)c3c3n2-c2ccccc2OC3c2ccc(Cl)o2)c1 (centres unmarked) [BPO-19, 6-(5-Chlorofuran-2-yl)-7,9-dimethyl-11-(m-tolyl)-6Hbenzo[b]pyrimido[4′,5′-3,4]pyrrolo[1,2-d]oxazine-8,10-(7H,9H)-dione]	0.37	–
Cc1cccc(-c2c3c(=O)n(C)c(=O)n(C)c3c3n2-c2ccccc2OC3c2ccc(C)o2)c1 (centres unmarked) [BPO-20, 7,9-Dimethyl-6-(5-methylfuran-2-yl)-11-(m-tolyl)-6H-benzo[b]pyrimido[4′,5′-3,4]pyrrolo[1,2-d]oxazine-8,10-(7H,9H)-dione]	0.6	–
Cc1ccc(C2Oc3ccc([N+](=O)[O-])cc3-n3c(-c4ccccc4)c4c(=O)n(C)c(=O)n(C)c4c32)o1 (centres unmarked) [BPO-22, 7,9-Dimethyl-6-(5-methylfuran-2-yl)-2-nitro-11-phenyl-6H-benzo[b]pyrimido[4′,5′-3,4]pyrrolo[1,2-d]oxazine-8,10-(7H,9H)-dione]	0.1	IC50 (human wildtype CFTR [2]): 0.025 µM
Cc1ccc(C2Oc3cc([N+](=O)[O-])c(Cl)cc3-n3c(-c4ccccc4)c4c(=O)n(C)c(=O)n(C)c4c32)o1 (centres unmarked) [BPO-24, 2-Chloro-7,9-Dimethyl-6-(5-methylfuran-2-yl)-3-nitro-11-phenyl-6H-benzo[b]pyrimido[4′,5′-3,4]pyrrolo[1,2-d]oxazine-8,10-(7H,9H)-dione]	0.17	–
CCOC(=O)c1ccc2c(c1)-n1c(-c3ccccc3)c3c(=O)n(C)c(=O)n(C)c3c1C(c1ccc(C)o1)O2 (centres unmarked) [BPO-26, Ethyl 7,9-Dimethyl-8,10-dioxo-6-(5-methylfuran-2-yl)-11-phenyl-7,8,9,10-tetrahydro-6H-benzo[b]pyrimido[4′,5′:3,4]pyrrolo[1,2-d][1,4]oxazine-2-carboxylate]	0.08	–
Cc1ccc(C2c3c4c(c(-c5ccccc5)n3-c3ccccc3N2S(C)(=O)=O)c(=O)n(C)c(=O)n4C)o1 (centres unmarked) [PPQ-1, 7,9-Dimethyl-6-(5-methylfuran-2-yl)-5-(methylsulfonyl)-11-phenyl-5,6-dihydropyrimido[4′,5′-3,4]pyrrolo[1,2-a]quinoxaline-8,10-(7H,9H)-dione]	–	IC50 (μm)^A (human wildtype CFTR [1]): inactive
Cc1ccc(C2c3c4c(c(-c5ccccc5)n3-c3ccccc3N2C(=O)CCl)c(=O)n(C)c(=O)n4C)o1 (centres unmarked) [PPQ-2, 5-(2-Chloroacetyl)-7,9-dimethyl-6-(5-methylfuran-2-yl)-11-phenyl-5,6-dihydropyrimido[4′,5′-3,4]pyrrolo[1,2-a]quinoxaline-8,10-(7H,9H)-dione]	–	IC50 (μm)^A (human wildtype CFTR [1]): inactive
CC(=O)N1c2ccccc2-n2c(-c3ccccc3)c3c(=O)n(C)c(=O)n(C)c3c2C1c1ccc(C)o1 (centres unmarked) [PPQ-3, 5-Acetyl-7,9-dimethyl-6-(5-methylfuran-2-yl)-11-phenyl-5,6. -dihydropyrimido[4′,5′-3,4]pyrrolo[1,2-a]quinoxaline-8,10-(7H,9H)-dione]	–	IC50 (μm)^A (human wildtype CFTR [1]): inactive
Cc1ccc(C2c3c4c(c(-c5ccccc5)n3-c3ccccc3N2N=O)c(=O)n(C)c(=O)n4C)o1 (centres unmarked) [PPQ-4, 7,9-Dimethyl-6-(5-methylfuran-2-yl)-5-nitroso-11-phenyl-5,6. -dihydropyrimido[4′,5′-3,4]pyrrolo[1,2-a]quinoxaline-8,10-(7H,9H)-dione]	2	–
Cc1ccc(C2c3c4c(c(-c5ccccc5)n3-c3ccccc3N2C)c(=O)n(C)c(=O)n4C)o1 (centres unmarked) [PPQ-5, 5,7,9-Trimethyl-6-(5-methylfuran-2-yl)-11-phenyl-5,6-dihydropyrimido[4′,5′-3,4]pyrrolo[1,2-a]quinoxaline-8,10-(7H,9H)-dione]	1	CFTR inhibition activity (in words) (human wildtype CFTR [1]): weakly active
CCc1ccc(C2Nc3ccccc3-n3c(-c4ccccc4)c4c(=O)n(C)c(=O)n(C)c4c32)o1 (centres unmarked) [PPQ-6, 7,9-Dimethyl-6-(5-ethylfuran-2-yl)-11-phenyl-5,6-dihydropyrimido[4′,5′-3,4]pyrrolo[1,2-a]quinoxaline-8,10-(7H,9H)-dione]	0.3	–
Cc1ccc(C2Nc3ccccc3-n3c(-c4ccccc4)c4c(=O)n(C)c(=O)n(C)c4c32)s1 (centres unmarked) [PPQ-7, 7,9-Dimethyl-6-(5-methylthiophene-2-yl)-11-phenyl-5,6-dihydropyrimido[4′,5′-3,4]pyrrolo[1,2-a]quinoxaline-8,10-(7H,9H)-dione]	1.7	–
Cc1cc(C2Nc3ccccc3-n3c(-c4ccccc4)c4c(=O)n(C)c(=O)n(C)c4c32)oc1C (centres unmarked) [PPQ-8, 7,9-Dimethyl-6-(4,5-dimethylfuran-2-yl)-11-phenyl-5,6-dihydropyrimido[4′,5′-3,4]pyrrolo[1,2-a]quinoxaline-8,10-(7H,9H)-dione]	1.7	–
Cn1c(=O)c2c(-c3ccccc3)n3c(c2n(C)c1=O)C(c1ccc(Cl)o1)Nc1ccccc1-3 (centres unmarked) [PPQ-9, 6(5-Chlorofuran-2-yl)-7,9-dimethyl-11-phenyl-5,6-dihydropyrimido[4′,5′-3,4]pyrrolo[1,2-a]quinoxaline-8,10-(7H,9H)-dione]	0.15	–
Cn1c(=O)c2c(-c3ccccc3)n3c(c2n(C)c1=O)C(c1ccc(C(F)(F)F)o1)Nc1ccccc1-3 (centres unmarked) [PPQ-12, 7,9-Dimethyl-11-phenyl-6-(5-trifluoromethylfuran-2-yl)-5,6-dihydropyrimido[4′,5′-3,4]pyrrolo[1,2-a]quinoxaline-8,10-(7H,9H)-dione]	0.35	–
Cn1c(=O)c2c(-c3ccccc3)n3c(c2n(C)c1=O)C(c1ccc(-c2ccccc2)o1)Nc1ccccc1-3 (centres unmarked) [PPQ-13, 7,9-Dimethyl-11-phenyl-6-(5-phenylfuran-2-yl)-5,6-dihydropyrimido[4′,5′-3,4]pyrrolo[1,2-a]quinoxaline-8,10-(7H,9H)-dione]	–	IC50 (μm)^A (human wildtype CFTR [1]): inactive
Cn1c(=O)c2c(-c3ccccc3)n3c(c2n(C)c1=O)C(c1ccc(CO)o1)Nc1ccccc1-3 (centres unmarked) [PPQ-14, 7,9-Dimethyl-11-phenyl-6-(5-hydroxymethylfuran-2-yl)-5,6-dihydropyrimido[4′,5′-3,4]pyrrolo[1,2-a]quinoxaline-8,10-(7H,9H)-dione]	–	IC50 (μm)^A (human wildtype CFTR [1]): inactive
Cn1c(=O)c2c(-c3ccccc3)n3c(c2n(C)c1=O)C(c1cc2ccccc2o1)Nc1ccccc1-3 (centres unmarked) [PPQ-15, 6-(Benzofuran-2-yl)-7,9-dimethyl-11-phenyl-5,6-dihydropyrimido[4′,5′-3,4]pyrrolo[1,2-a]quinoxaline-8,10-(7H,9H)-dione]	–	IC50 (μm)^A (human wildtype CFTR [1]): inactive
Cn1c(=O)c2c(-c3ccccc3)n3c(c2n(C)c1=O)C(c1ccc(Br)o1)Nc1ccc([N+](=O)[O-])cc1-3 (centres unmarked) [PPQ-23, 6-(5-Bromofuran-2-yl)-7,9-dimethyl-2-nitro-11-phenyl-5,6-dihydropyrimido[4′,5′-3,4]pyrrolo[1,2-a]quinoxaline-8,10-(7H,9H)-dione]	0.17	–
